Results on six molecules are retold here after US20130156708A1, “PHENOL DERIVATIVES AS ANTIMICROBIAL AGENTS” (Symrise AG, priority 2011, published 2013).

For orientation: MIC means the least concentration at which growth counts as inhibited. Read a low MIC as greater potency.

In assay [1] the test system is E. coli, S. aureus and C. albicans. As to the kind of experiment: Fast time-kill test, statements of the text over all investigated microorganisms. The note with it: 0.1% concentration, span over E. coli, averages of four independent experiments. In kind it is cell-based. The procedure: (§1) This protocol gives an exact description on how to perform a fast time-kill experiment. Fast time-kill experiments serve to determine the antimicrobial kill activity of a specific substance or substance mixture against a particular microorganism or a mixture of microorganisms. To kill (synonymous: to inactivate) a microorganism means that after the treatment, the microorganism has permanently lost its capacity to grow or to replicate.
Microorganisms are grown in suitable growth medium allowing for exponential growth. For E. coli, Salmonella spp., S. aureus, P. aeruginosa, and for C. albicans tryptic soy broth medium is used. One hundred ml Erlenmeyer flasks containing 20 ml growth medium are inoculated with 10^5 to 10^8 microbial cells/ml and incubated overnight under continuous shaking (120 rpm) at a temperature allowing for exponential growth, usually between 20 and 37° C. […]
(§2) Samples are taken from reaction tubes after defined time intervals (preferably 1, 2 and 5 min) to determine the number of surviving microorganisms. […] The number of surviving microorganisms is determined by aspiring 100 μl volumes from reaction tubes and mixing it immediately with 900 μl growth medium to prepare a 10^−1 dilution. […]

Assay [2] concerns C. albicans. As to the kind of experiment: Fast time-kill test, inactivation time for 99.9% kill, C. albicans. The class given is cell-based, Candida albicans. The settings on record: Candiada albicans; 0.1% concentration; averages of four independent experiments. The procedure: as §1
(§3) Microorganisms are grown in suitable growth medium allowing for exponential growth. For E. coli, Salmonella spp., S. aureus, P. aeruginosa, and for C. albicans tryptic soy broth medium is used. One hundred ml Erlenmeyer flasks containing 20 ml growth medium are inoculated with 10^5 to 10^8 microbial cells/ml and incubated overnight under continuous shaking (120 rpm) at a temperature allowing for exponential growth, usually between 20 and 37° C. The temperature is chosen in such a way to ensure the exponential growth for the used microorganisms, for E. coli, Salmonella spp., S. aureus, P. aeruginosa, and for C. albicans 37° C. is used.
(§4) After reaching the stationary growth phase, 100 μl of this culture are transferred in a second Erlenmeyer flask containing 20 ml of the same growth medium. This culture is shaken for further (preferably to up to 7 hours) under identical conditions as described above. Subsequently, this culture is diluted in the same growth medium to 10^5 to 10^9, preferably to 10^6 to 10^8 cells/ml. With this suspension of microorganism (named “microorganism working suspension”) the time-kill test is performed.
(§5) Test substances are dissolved in DMSO, EtOH and/or H2O, preferably in H2O, to prepare a 100× concentrated stock solution. […]
as §2

For assay [3], the system named is S. aureus. As to the kind of experiment: Fast time-kill test, inactivation time for 99.9% kill, S. aureus. In kind it is cell-based. The settings on record: Staphylococcus aureus; 0.1% concentration; averages of four independent experiments. The procedure: as §1, §3, §4, §5, §2
Assay [4] concerns E. coli. As to the kind of experiment: Fast time-kill test, inactivation time for 99.9% kill, E. coli. In kind it is cell-based. The settings on record: Escherichia coli; 0.1% concentration; averages of four independent experiments. The procedure: as §1, §3, §4, §5, §2
Assay [5] concerns C. albicans. As to the kind of experiment: Minimum inhibitory concentration, C. albicans. The class given is cell-based, Candida albicans. The note with it: for MIC: Candida albicans. From the text:
(§6) Assessment of minimum inhibitory concentrations of thymol and 4-prenylphenol against versus microorganisms relevant for home and personal care:
(§7) The results of comparative assessment of minimum inhibitor concentration for both thymol and 4-prenylphenol are listed in Table 2.

The subject of assay [6] is Aspergillus niger. As to the kind of experiment: Minimum inhibitory concentration, A. niger. In kind it is cell-based. The note with it: for MIC: Aspergillus niger.
Assay [7] concerns microorganisms relevant for home and personal care. As to the kind of experiment: Minimum inhibitory concentration, further microorganisms of Table 2. In kind it is cell-based.
Text: as §6, §7

The test system of assay [8] is S. aureus. As to the kind of experiment: Synergistic activity (Kull) in fast time-kill experiments, S. aureus. In kind it is cell-based, Staphylococcus aureus. The procedure:
(§8) This protocol gives an exact description on how to perform a fast time-kill experiment. Fast time-kill experiments serve to determine the antimicrobial kill activity of a specific substance or substance mixture against a particular microorganism or a mixture of microorganisms.
as §3, §4
(§9) Test substances are dissolved in DMSO, EtOH and/or H2O, preferably in H2O, to prepare a 100× concentrated stock solution. In case the test substance is not completely soluble in H2O, the solvents are chosen in to ensure a complete dissolution of the test substance, the chosen concentration of DMSO and EtOH being as low as possible. For solid substances, complete dissolution has to be ensured. […] Preferably, the concentrations of the test substances in the 100× concentrated stock solution are between 1 and 100%, corresponding to 0.01 to 1% in the final test. The amount of the 100× concentrated stock solution in the final test should not exceed 1% in order to limit the concentration of DMSO or EtOH to 1% in the final test.
(§10) Fast time-kill tests are performed in 1000 μl volumes in 1.5 ml plastic reaction tubes (Eppendorf). The test is started by mixing (in this particular order) 100 μl microorganism working suspension with 890 μl tryptic soy broth growth medium containing 0.1% Tween® 80 and 10 μl 100× concentrated stock solution of test substances. Controls are included that are prepared as described above, but using 100× stock solution without test substances. During the test, tubes are incubated at the same temperature as the microorganisms were grown, usually 20 to 37° C. (for E. coli, Salmonella spp., S. aureus, P. aeruginosa, and for C. albicans 37° C. is used) in an Eppendorf Thermomixer and are vigorously shaken at 1400 rpm.
(§11) Samples are taken from reaction tubes after defined time intervals (preferably 1, 2 and 5 min) to determine the number of surviving microorganisms. At time 0 (immediately after starting the test) samples are taken from control tubes to determine the initial number of microorganisms in the test. The number of surviving microorganisms is determined by aspiring 100 μl volumes from reaction tubes and mixing it immediately with 900 μl growth medium to prepare a 10^−1 dilution. Further dilutions are prepared in this way from 10^−2 to 10^−4. One hundred μl volumes of the different dilutions are plated on tryptic soy broth agar plates and incubated for up to 48 h at the same temperature as the microorganisms were grown, usually 20 to 37° C. (for E. coli, Salmonella spp., S. aureus, P. aeruginosa, and for C. albicans 37° C. is used). Colonies grown on plates are counted and the numbers of surviving microorganisms are calculated for the different treatments and time points. For substances with low minimum inhibitory concentrations (MIC), sufficient dilution below the concentration of the MIC value has to be ensured.

Assay [9] is described as follows: Taste test in alcohol free mouth wash formulation. The settings on record: compound 0.1%, peppermint Optamint Flavor 0.15%, versus sample without compound. From the text:
The compounds of formulae (IIa) and (IIIa) were further tested in oral care formulations. In particular, an alcohol free mouth wash formulation in combination with a standard peppermint flavor (Optamint® Flavor, dosage 0.15%) plus compound of formula (IIa) or (IIIa), respectively, (dosage 0.1%) was compared with a sample without any compound of formula (I), but being otherwise identically composed. The taste impressions of the samples including the respective compound of formula (IIa) or (IIIa) are described as follows: […]

The subject of assay [10] is E. coli. As to the kind of experiment: Synergistic activity (Kull) in fast time-kill experiments, E. coli. In kind it is cell-based, Escherichia coli. The procedure: as §8, §3, §4, §9, §10, §11
Assay [11] in a line: Taste test in silica toothpaste formulation. The note with it: compound 0.1%, spearmint Optamint Flavor 1%, versus sample without compound. From the text: A silica toothpaste formulation in combination with a standard spearmint flavour (Optamint® Flavor, dosage 1%) plus the respective compound of formula (IIa) or (IIb) dosage 0.1% was compared to a sample without such compound of formula (I). The taste impressions of the sample including the compound of formula (IIa) or (IIb), respectively, are described as follows: […]

In assay [12] the test system is E. coli. As to the kind of experiment: Minimum inhibitory concentration, E. coli. The class given is cell-based, Escherichia coli. The settings on record: for MIC: Escherichia coli.
Text: as §6, §7

Assay [13] concerns S. aureus. As to the kind of experiment: Minimum inhibitory concentration, S. aureus. The class given is cell-based, Staphylococcus aureus. The settings on record: for MIC: Staphylococcus aureus.
Text: as §6, §7

Structures are written as SMILES. Converted amounts (≈) assume the structure as drawn.

Regarding `Oc1cc(Cl)ccc1Oc1ccc(Cl)cc1Cl` [Triclosan], in assay [1], the “Inactivation time for a 99.9% kill” value is on record as over 100 min. In addition, the “Inactivation time for 99.9% kill” value in assay [2], in assay [3] and in assay [4] was over 100 min in each case.

Turning to `CC(C)=CCc1ccc(O)cc1` [IIa, 4-(3-Methylbut-2-enyl)phenol], the “minimum inhibitory concentration compared with Thymol” value is on record as “a factor of two lower” in assay [5] (C. albicans), “equal to the one of Thymol” in assay [12] (E. coli) and “equal to the one of Thymol” in [13] (S. aureus). For the same molecule, the MIC in assay [5] stood at 125 µg/mL (≈ 771 µM); in assay [6] it was 64 µg/mL (≈ 394 µM); in [7] (Corynebacterium xerosis), 125 µg/mL (≈ 771 µM); in assay [7] (Fusobacterium nucleatum), 64 µg/mL (≈ 394 µM); in assay [7] (Malassezia furfur), 1000 µg/mL (≈ 6160 µM); in assay [7] (Porphyromonas gingivalis), 64 µg/mL (≈ 394 µM). Moreover, the MIC is over 1000 µg/mL in [7] (Pseudomonas aeruginosa); 125 µg/mL (≈ 771 µM) in assay [7] (Salmonalla enteritidis); 125 µg/mL (≈ 771 µM) in assay [7] (Staphylococcus epidermidis); 125 µg/mL (≈ 771 µM) in [7] (Streptococcus mutans); 125 µg/mL (≈ 771 µM) in assay [12]; 125 µg/mL (≈ 771 µM) in assay [13]. Further, the “antimicrobial activity against the mould A. niger” value in [6] was “strong antimicrobial activity”. Further, the results for the “Inactivation time for 99.9% kill” value in assay [2], in assay [3] and in assay [4] were 1.4 min, 1.2 min and 1.3 min, respectively. For the same molecule, the Inactivation rate k came to 1.2 min⁻¹ in [8] (4-Prenylphenol 400 ppm) and 0.94 min⁻¹ in [10] (4-Prenylphenol 250 ppm). Also, the entries for the “Inactivation time T99.9%” value in [8] (4-Prenylphenol 400 ppm) and in assay [10] (4-Prenylphenol 250 ppm) were 5.6 min and 7.4 min, respectively. Also, the “Reduction of surviving microorganisms” value in [8] (4-Prenylphenol 400 ppm) is on record as 0.29; in assay [10] (4-Prenylphenol 250 ppm), 0.39. For the same molecule, the “numbing/tingling feeling on the tongue” value in assay [9] and in assay [11] was “clearly leaves a numbing/tingling feeling on the tongue” each time.

As for `Cc1ccc(C(C)C)c(O)c1` [Thymol, reference compound], the MIC in assay [5] turned out to be 250 µg/mL (≈ 1660 µM); in assay [6], 1000 µg/mL (≈ 6660 µM); in [7] (Corynebacterium xerosis), 125 µg/mL (≈ 832 µM); in assay [7] (Fusobacterium nucleatum), 125 µg/mL (≈ 832 µM); in assay [7] (Malassezia furfur) it was 1000 µg/mL (≈ 6660 µM); in [7] (Porphyromonas gingivalis) it was 125 µg/mL (≈ 832 µM). In addition, the MIC in [7] (Pseudomonas aeruginosa) came to 1000 µg/mL (≈ 6660 µM); in [7] (Salmonalla enteritidis) it was 250 µg/mL (≈ 1660 µM); in [7] (Staphylococcus epidermidis) it was 250 µg/mL (≈ 1660 µM); in [7] (Streptococcus mutans) it was 250 µg/mL (≈ 1660 µM); in assay [12], 125 µg/mL (≈ 832 µM); in [13], 125 µg/mL (≈ 832 µM). In addition, the “Inactivation time for 99.9% kill” value in assay [2] amounted to 8.7 min; in assay [3], 4.9 min; in assay [4], 4.1 min.

On to `CC(C)=CCc1ccccc1O` [IIIa, 2-(3-Methylbut-2-enyl)phenol], for which the “numbing/tingling feeling on the tongue” value in assay [9] was “clearly leaves a numbing/tingling feeling on the tongue”.

For `COC(=O)c1ccc(O)cc1` [Methylparaben, reference compound], in assay [8] (Methylparaben 5000 ppm), the Inactivation rate k is 0.40 min⁻¹, the “Inactivation time T99.9%” value is listed as 18.1 min and the “Reduction of surviving microorganisms” value came to 0.67. Also, in [10] (Methylparaben 2500 ppm), the Inactivation rate k is 0.09 min⁻¹, the “Inactivation time T99.9%” value is reported as 89.1 min and the “Reduction of surviving microorganisms” value is reported as 0.91.

For `C=C(C)CCc1ccc(O)cc1` [IIb, 4-(3-Methylbut-3-enyl)phenol], the “numbing/tingling feeling on the tongue” value in assay [11] is on record as “clearly leaves a numbing/tingling feeling on the tongue”.
